Laboratory results from PubChem BioAssay AID179 (DTP/NCI, 2004).
Activity calls are given as the source filed them.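 Rule for the calls: active = compounds giving half or more protection of infected cells from virus-caused growth loss, again on retest; inactive = the rest.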

Tested on: CEM cells HIV-1 protection, formazan growth assay
Assay: NCI AIDS Antiviral Assay
Conditions: for IC50: measured here: growth of uninfected CEM cells
Method in brief: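 Human CEM cells, uninfected and HIV-1-infected, received five drug concentrations, and growth was read by soluble formazan assay. Compounds giving at least 50% protection were retested; reproducible 100% protection defined confirmed active.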

Compound: CC(C)(C)N/N=C(\C(=O)Nc1ccc([N+](=O)[O-])cc1[N+](=O)[O-])c1nc2ccc([N+](=O)[O-])cc2[nH]c1=O
- EC50: > 14.5 µM
- IC50: > 14.5 µM

Compound: COc1cc(C(c2cccc3ccccc23)N2C(=O)CCC2C(=O)O)cc(OC)c1OC (centres undefined)
- EC50: > 200 µM
- IC50: > 200 µM

Compound: O=C1C2=Cc3ccccc3OC2(O)Oc2ccccc21 (centres undefined)
- EC50: > 200 µM
- IC50: 23.4 µM

Compound: CN(c1ccccc1Cl)S(=O)(=O)c1ccccc1
- EC50: > 200 µM
- IC50: 70.8 µM

Compound: CCCCc1c2c(nc3c1CCc1cc4cc5c(nc4nc1-3)-c1nc3c(c(CCCC)c1CC5)CCCC3=O)C(=O)CCC2
- EC50: > 100 µM
- IC50: 0.457 µM

Compound: O=C1NP23(OCCO2)Oc2ccccc2C3(C(F)(F)F)O1 (centres undefined)
- EC50: > 776 µM
- IC50: 389 µM

Compound: [Cu+2].[NH-]c1cc(N)ccc1O.[NH-]c1cc(N)ccc1O
- outcome: inactive

Compound: CCCCCC=C(c1cc(Br)cc(C(=O)O)c1OC)c1cc(Br)cc(C(=O)O)c1OC
- EC50: > 170 µM
- IC50: 166 µM

Compound: O=c1c(-c2ccccc2)c[nH]c2cc([N+](=O)[O-])c(/C(Cl)=C/c3ccccc3)cc12
- outcome: inactive

Compound: O=c1ncc2[nH]c(=S)[nH]c2[nH]1
- EC50: > 200 µM
- IC50: > 200 µM

Compound: COC(=O)c1c(CC(=O)O)oc2c1CCCC2
- outcome: inactive

Compound: C(#CCN1CCCCCC1)CN1CCCCCC1
- EC50: 182 µM
- IC50: > 200 µM

Compound: C[PH+](C)C.C[PH+](C)C.[C-]#[O+].[C-]#[O+].[C-]#[O+].[Fe]
- EC50: > 200 µM
- IC50: 49 µM

Compound: CC(=O)C(C(=O)C(C)(C)C)C(=O)C(C)(C)C
- EC50: > 200 µM
- IC50: > 200 µM

Compound: C=CCOC(C)n1c(C)cc(=O)n(C(C)OCC=C)c1=O (centres undefined)
- EC50: > 200 µM
- IC50: > 200 µM

Compound: COC1=CC(=Nc2c(Cl)cc(Cl)cc2OC(=O)c2ccc([N+](=O)[O-])cc2)C=C(OC)C1=O
- outcome: inactive

Compound: COC(=O)[C@H](Cc1ccccc1)NC(=O)N(CCN(CCC#N)C(=O)N[C@H](C(=O)OC)C(C)C)c1ccccc1
- EC50: > 200 µM
- IC50: 83.2 µM

Compound: Nc1[nH][nH]c(=O)c1N=O
- EC50: > 200 µM
- IC50: > 200 µM

Compound: CC(/C=C/c1ccc(N(C)C)cc1)=N\NC(=S)NCC(C)C
- EC50: > 200 µM
- IC50: 29.5 µM

Compound: CCOC(=O)c1nc2ccccc2n(CC)c1=O
- EC50: > 200 µM
- IC50: 79.4 µM

Compound: CCOc1ccc(N=Nc2ccc3oc(=O)c(C(=O)Nc4ccc(OC)cc4)cc3c2)cc1
- EC50: > 8.51 µM
- IC50: > 8.51 µM

Compound: O=C(c1ccccc1)C1C(=O)c2ccccc2C1=O
- EC50: > 105 µM
- IC50: > 105 µM

Compound: COc1ccc(/C=N/NC(=O)CSc2nc(-c3ccccc3)c(-c3ccccc3)[nH]2)cc1OC
- EC50: > 55 µM
- IC50: 31.6 µM

Compound: O=C(C=Nc1ccccc1C(=O)[O-])c1ccco1.O=C(C=Nc1ccccc1C(=O)[O-])c1ccco1.[Ni+2]
- EC50: > 1.91 µM
- IC50: > 1.91 µM

Compound: C/C(=N\NC(=O)c1cccc2c(=O)c3ccccc3[nH]c12)C1CC[C@H]2[C@@H]3CCC4=C/C(=N\NC(=O)c5cccc6c(=O)c7ccccc7[nH]c56)CC[C@]4(C)[C@H]3CC[C@]12C (some centres undefined)
- EC50: > 50.1 µM
- IC50: > 50.1 µM

Compound: O=c1oc2ccccc2cc1P(=O)(O)O
- EC50: > 200 µM
- IC50: 8.91 µM

Compound: [N-]=[N+]=NS(=O)(=O)c1cccc([N+](=O)[O-])c1
- outcome: inactive

Compound: CCCCCCc1ccc(O)cc1O
- EC50: > 200 µM
- IC50: 74.1 µM

Compound: CCOc1ccc(N=Cc2cc(OC)c(OC)c(OC)c2)cc1
- EC50: > 60.3 µM
- IC50: > 60.3 µM

Compound: NC(CC(=O)OCc1ccccc1)C(=O)OCc1ccccc1 (centres undefined)
- EC50: > 200 µM
- IC50: > 200 µM

Compound: O=C(CC1(O)C(=O)Nc2ccc([N+](=O)[O-])cc21)c1ccc(Br)cc1 (centres undefined)
- EC50: > 41.7 µM
- IC50: > 41.7 µM

Compound: C=CCC1CCN(C=C)C1=O (centres undefined)
- EC50: > 1660 µM
- IC50: 1580 µM

Compound: CC(=O)OC1CC2C(C)(CCC3C2(C)CCC2(C)C4CC(C)(C)CCC4(C)CCC32C)C1C (centres undefined)
- EC50: > 200 µM
- IC50: 145 µM

Compound: Cn1nc2ccccc2cc1=O
- EC50: > 1550 µM
- IC50: 661 µM

Compound: C=C(C)CNC1=C(C)C(=O)C2=C(C1=O)[C@H](COC(N)=O)[C@]1(OC)[C@@H]3N[C@@H]3CN21
- EC50: > 200 µM
- IC50: 14.5 µM

Compound: Cc1cc(Cl)ccc1NC(=O)CC1SC(=NC(=O)c2ccccc2Cl)NC1=O (centres undefined)
- EC50: > 16.6 µM
- IC50: > 16.6 µM

Compound: CC(=O)OCC1=C(C(=O)O)N2C(=O)C(NC(=O)CSc3ccncc3)C2SC1 (centres undefined)
- EC50: 61.7 µM
- IC50: 631 µM

Compound: O=C1Oc2ccccc2C(=O)/C1=C/N1C(=O)/C(=C/c2ccc3c(c2)OCO3)SC1=S
- EC50: > 200 µM
- IC50: 20.4 µM

Compound: Cc1ccc2sc3cc(=O)cc(C)c-3nc2c1
- EC50: > 10.7 µM
- IC50: > 10.7 µM

Compound: CCCCCCCCCCCCC/C=C/C(O)C(CO)NC(=O)CCCCC (centres undefined)
- outcome: inactive

Compound: CCc1c(C)c(C#N)c(=S)n(C2OC(COC(C)=O)C(OC(C)=O)C(OC(C)=O)C2OC(C)=O)c1-c1ccccc1 (centres undefined)
- EC50: > 200 µM
- IC50: 102 µM

Compound: NC(=O)C(c1ccccc1)N1CCCCC1 (centres undefined)
- outcome: inactive

Compound: CC1(C)C(C(=O)O)C1C(=O)O (centres undefined)
- EC50: > 200 µM
- IC50: > 200 µM

Compound: Cn1c(=O)c2c(n(C)c1=O)n1c(SCc3ccccc3)nnc1n2C
- EC50: > 200 µM
- IC50: 182 µM

Compound: C=CN1CCCC1=O
- outcome: inactive

Compound: O=C(Nc1ccn(CCO)c(=O)n1)c1ccccc1
- EC50: > 692 µM
- IC50: > 692 µM

Compound: COc1ccc(C2=NOC(N)(c3ccc(OC)cc3)C2)cc1 (centres undefined)
- EC50: > 200 µM
- IC50: > 200 µM

Compound: CC1NCC(O)C(O)C1O (centres undefined)
- EC50: > 49 µM
- IC50: > 49 µM

Compound: Brc1c2nc3ccccc3nc2n2ccc3ccccc3c12
- EC50: > 28.8 µM
- IC50: > 28.8 µM

Compound: Cc1ccc(NC(=S)Nc2ccccc2C)nc1
- EC50: > 200 µM
- IC50: 0.776 µM

Compound: COc1ccc(/C=C2\CN(C)Cc3c2[nH]c(=O)c(C#N)c3-c2ccc(OC)cc2)cc1
- EC50: > 200 µM
- IC50: 97.7 µM

Compound: COc1ccc(C(=O)C(C(=O)C(=O)Nc2nc3ccc(OC)cc3s2)c2ccc(OC)cc2)cc1 (centres undefined)
- EC50: > 38 µM
- IC50: > 38 µM

Compound: CC(C)c1cccc(C(C)C)c1NC(=S)N=Nc1cc(C(C)(C)C)c(O)c(C(C)(C)C)c1
- EC50: > 5.75 µM
- IC50: > 5.75 µM

Compound: COc1cccc([C@@]2(O)c3c(ccc(O)c3OC)[C@H]2OC)c1OC
- EC50: > 15.8 µM
- IC50: > 15.8 µM

Compound: COC1/C=C/OC2(C)Oc3c(C)c(O)c4c(O)c(c(C=NN5CCCCCCCCCC5)c(O)c4c3C2=O)NC(=O)/C(C)=C/C=C/C(C)C(O)C(C)C(O)C(C)C(OC(C)=O)C1C (centres undefined)
- EC50: > 200 µM
- IC50: 6.17 µM

Compound: C/C(=N/N=C(\[O-])c1ccncc1)C(F)(F)F.C/C(=N\N=C(/[O-])c1ccncc1)C(F)(F)F.[Ni+2]
- EC50: > 200 µM
- IC50: 89.1 µM

Compound: COC(=O)C1=CCS(=O)(=O)C1
- EC50: > 1410 µM
- IC50: 178 µM

Compound: CNc1ccc(Cl)cc1S(=O)(=O)c1ccc(OC)cc1
- EC50: > 200 µM
- IC50: 2.14 µM

Compound: O=[N+]([O-])c1ccccc1/C=C/c1ccccn1
- EC50: > 16.6 µM
- IC50: > 16.6 µM

Compound: Cc1ccc(S(=O)(=O)N(CC(=O)O)c2c[nH]c(C(=O)O)c2)cc1
- EC50: > 200 µM
- IC50: > 200 µM

Compound: O=C(O)/C=C/c1c2ccc(=O)cc-2oc2cc(O)ccc12
- EC50: > 200 µM
- IC50: 28.8 µM

Compound: CC(=O)c1cc(S(=O)(=O)c2ccc(O)c(C(C)=O)c2)ccc1O
- EC50: > 200 µM
- IC50: 42.7 µM

Compound: C=C1c2nc3ccccc3n2C=C(c2ccccc2)N1c1ccccc1
- EC50: > 200 µM
- IC50: 3.98 µM

Compound: CC(C)N=C(N)NC#N
- EC50: > 1480 µM
- IC50: > 1480 µM

Compound: COC(=O)C(C(=O)C(=O)Nc1ccc([N+](=O)[O-])cc1)c1nc2ccc([N+](=O)[O-])cc2[nH]c1=O (centres undefined)
- EC50: > 57.5 µM
- IC50: > 57.5 µM

Compound: OCCSCc1cc2c(O)c(c1)Cc1cc(CSCCO)cc(c1O)Cc1cc(CSCCO)cc(c1O)Cc1cc(CSCCO)cc(c1O)C2
- EC50: > 24 µM
- IC50: 5.01 µM

Compound: O=S(=O)(O)c1cc(N=Nc2ccc(O)cc2O)ccc1/C=C/c1ccc(N=Nc2ccc(O)cc2O)cc1S(=O)(=O)O
- EC50: > 70.8 µM
- IC50: 66.1 µM

Compound: Cc1cc2c(c(C(N)=O)c1C)-c1cccc(Cl)c1C2=O
- outcome: inactive

Compound: O=S1(=O)CCCCS1
- EC50: > 200 µM
- IC50: 5.37 µM

Compound: CCOC(=O)NN(C(=O)OCC)c1ccc(N=Nc2ccc(OC)cc2)n1C
- EC50: > 200 µM
- IC50: 26.9 µM

Compound: COC(=O)c1cc(C(=CCC[C@H]2CC[C@@]3(C)C(CC[C@@H]4C3CC[C@@]3(C)C4CC[C@@H]3[C@H](C)CCCC(C)C)C2)c2cc(Cl)c(OC)c(C(=O)OC)c2)cc(Cl)c1OC (some centres undefined)
- EC50: > 15.8 µM
- IC50: > 15.8 µM

Compound: CC(=O)NNC(=S)/N=C\c1c(O)c2ccccc2oc1=O
- outcome: inactive

Compound: COC(=O)C(C(=O)C(=O)Nc1ccccc1C)c1nc2ccc([N+](=O)[O-])cc2[nH]c1=O (centres undefined)
- outcome: inactive

Compound: Nc1[nH]nc2nc3ccc(C(F)(F)F)cc3nc12
- EC50: > 200 µM
- IC50: 29.5 µM

Compound: O=c1ccc(=O)n(-c2ccc(Br)cc2)[nH]1
- EC50: > 26.9 µM
- IC50: > 26.9 µM

Compound: CC1CN(c2cc3c(cc2F)c(=O)c(C(=O)O)cn3-c2ccc(N3CCN(C)CC3)cn2)CC(C)N1 (centres undefined)
- EC50: > 145 µM
- IC50: 123 µM

Compound: CCOC(=O)c1c(C(=O)OC)nc2n1-c1ccccc1OC2
- EC50: > 832 µM
- IC50: 64.6 µM

Compound: O=[N+]([O-])c1cccc(/C=N/NC2=CS(=O)(=O)C=C2)c1
- EC50: > 67.6 µM
- IC50: > 67.6 µM

Compound: c1ccc2cc3c(cc2c1)Cn1c-3nc2ccccc21
- EC50: > 200 µM
- IC50: > 200 µM

Compound: C/C(=N/NC(=O)C(N)=O)C(CC(C(=O)Nc1ccccc1C)/C(C)=N\NC(=O)C(N)=O)C(=O)Nc1ccccc1C (centres undefined)
- EC50: > 158 µM
- IC50: 79.4 µM

Compound: CN(C)/C(N)=N/C(N)=Nc1cccc(Cl)c1
- EC50: > 200 µM
- IC50: 83.2 µM

Compound: COC(=O)CN1CCSC1=NC#N
- outcome: inactive

Compound: COC(=O)c1sc2c(Cl)c(Cl)sc2c1Cl
- EC50: > 50.1 µM
- IC50: > 50.1 µM

Compound: CCCCCCCCCCNC(C)=O
- EC50: > 200 µM
- IC50: 85.1 µM

Compound: COC(=O)/C(=N\NC(N)=O)C(C#N)c1ccccc1 (centres undefined)
- EC50: > 692 µM
- IC50: > 692 µM

Compound: CCN(CC)CCCC(C)Nc1cc(-c2ccccc2)nc2ccccc12 (centres undefined)
- EC50: > 17.8 µM
- IC50: 7.76 µM

Compound: Cc1cn(COCCS(=O)c2ccccc2)c(=O)[nH]c1=O (centres undefined)
- EC50: > 200 µM
- IC50: > 200 µM

Compound: O=S(O)Cc1ccccc1CSSSCc1ccccc1CS(=O)O
- EC50: > 200 µM
- IC50: 102 µM
